Reference: paper PMC11396935, “Exploration of Compounds with 2-Phenylbenzo[d]oxazole Scaffold as Potential Skin-Lightening Agents through Inhibition of Melanin Biosynthesis and Tyrosinase Activity” (Molecules, 2024)
Read-outs that look alike come from different tables or passages of the source.

Legend:
[1] = tested on: B16F10 cellular tyrosinase; assay: Cellular tyrosinase activity assay in B16F10 cells; type: cell-based, murine; settings: 1, 2, 5 μM; kojic acid 5 μM; α-MSH 1 μM + IBMX 200 μM, 72 h
Description: To investigate the origins of the anti-melanogenic effects of compounds 3, 8, and 13, their impacts on B16F10 cellular tyrosinase inhibition were evaluated. The experiment utilized a similar experimental method and the same concentrations as those used in the melanin content experiment. Compounds 3, 8, and 13 (1, 2, and 5 μM), kojic acid (5 μM: positive control), and stimulators (1 μM α-MSH and 200 μM IBMX) were used in this experiment. Prior to treatment with the stimulators for 72 h, the test samples (3, 8, 13, and kojic acid) were pre-treated for 1 h.
3.9. Cellular Tyrosinase Activity Assay in B16F10 Cells
The effects of compounds 3, 8, and 13 on B16F10 cellular tyrosinase activity were assessed using a previously reported method. B16F10 cells were seeded, treated with the samples and stimulators, and cultured for 72 h in the same manner as for the cellular melanin content assay. To lyse the cultured cells, a lysis buffer was prepared containing 1 mM phenylmethylsulfonyl fluoride, 50 mM phosphate buffer, and 1% Triton X-100 (5:90:5, v/v/v). The cultivated cells were lysed by adding the prepared lysis buffer (100 µL) after washing twice with PBS. The lysed cells were centrifuged for 30 min at 4 °C and 10,000 g after freezing for 1 h at −80 °C. The supernatants (80 µL) and 10 mM L-dopa (20 µL) were added to each well of a 96-well plate and cultivated for 10 min at 37 °C. The optical density was measured at 475 nm using an ELISA reader. Normalization was performed using a Pierce BCA Protein Assay Kit.

[2] = biological target: T1, mushroom tyrosinase (Agaricus bisporus, UniProt C7FF04); assay: Mushroom tyrosinase activity inhibition assay (L-tyrosine or L-dopa as substrate); type: biochemical; settings: for IC50: mushroom tyrosinase, 37 °C, mean ± SEM of triplicates
T1 construct: purchased Sigma-Aldrich (St. Louis, MO, USA)
T1 sequence (C7FF04 1-392 limits assumed): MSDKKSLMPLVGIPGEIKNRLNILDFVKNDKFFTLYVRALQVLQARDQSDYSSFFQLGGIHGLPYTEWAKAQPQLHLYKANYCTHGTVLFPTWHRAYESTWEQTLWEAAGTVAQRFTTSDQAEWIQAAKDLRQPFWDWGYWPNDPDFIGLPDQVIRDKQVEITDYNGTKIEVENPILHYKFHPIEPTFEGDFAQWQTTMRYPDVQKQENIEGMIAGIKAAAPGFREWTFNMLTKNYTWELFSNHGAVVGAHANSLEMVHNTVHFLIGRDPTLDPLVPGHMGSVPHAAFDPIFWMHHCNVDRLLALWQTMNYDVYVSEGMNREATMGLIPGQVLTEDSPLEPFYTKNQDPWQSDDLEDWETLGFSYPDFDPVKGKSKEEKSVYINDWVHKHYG
Description: 3.3. Tyrosinase Activity Assay Using Mushroom Tyrosinase
The tyrosinase inhibitory activity of the 2-phenylbenzoxazoles was evaluated using a mushroom tyrosinase activity assay, following a previously described method. An aqueous substrate mixture, consisting of phosphate buffer (pH 6.5; 17.2 mM) and L-tyrosine or L-dopa (345 μM), was prepared. A 96-well plate containing the test sample in dimethyl sulfoxide (DMSO) solution (10 μL), aqueous mushroom tyrosinase solution (20 μL; 200 units), and aqueous substrate mixture (170 μL) in each well was incubated at 37 °C for 15 min for L-dopa and 30 min for L-tyrosine, respectively.

[3] = tested on: B16F10 cells; assay: B16F10 cell viability assay (EZ-Cytox); type: cell-based, murine; settings: 0, 1, 2, 5 μM
Description: Since the 2-phenylbenzoxazole compounds 3, 8, and 13 were identified as being potent mushroom tyrosinase inhibitors, they were used in B16F10-cell-based experiments. Before assessing the biological impact of compounds 3, 8, and 13 in the B16F10 cells, the effect of these compounds on B16F10 cell viability was evaluated. The cells were treated with the compounds at concentrations of 0, 1, 2, and 5 μM for 48 and 72 h, respectively.
3.7. B16F10 Cell Viability Assay
Test samples (3, 8, and 13) were added to each well at final concentrations of 0, 1, 2, and 5 μM and cultivated for 48 and 72 h, respectively. Each well was treated with 10 μL of EZ-Cytox solution (EZ-1000®, DoGenBio, Seoul, Republic of Korea) and cultivated for 2 h. The absorbance of each well was measured at 450 nm using an ELISA reader.

[4] = ABTS radical cation scavenging assay; settings: 100 μM
Description: For ABTS^+• scavenging experiments, ABTS^+• was generated by oxidizing ABTS using potassium persulfate. All test samples (Trolox [TR; positive material] and 1–15) were used at a final concentration of 100 μM. […] Both compounds share a common catechol structure. […] Similar results were obtained in the DPPH radical scavenging experiment. […] Compounds 4, 9, and 14, bearing a 4-hydroxy-3-methoxyphenyl, scavenged ABTS^+• moderately (23–51%).
3.15. 2,2′-Azino-bis(3-ethylbenzothiazoline-6-sulfonic Acid) (ABTS) Radical Cation Scavenging Assay
The effect of the 2-phenylbenzoxazole compounds 1–15 on radical scavenging was assessed using an ABTS assay, as previously reported. An ABTS aqueous solution (7 mM) was mixed with a K2S2O8 aqueous solution (2.45 mM) in equal volumes (each 20 mL) and incubated in the dark for 20 h at 25 °C to generate ABTS^+•. The ABTS^+• solution was then diluted with pure EtOH to adjust the absorbance of the solution to 0.7 ± 0.02 at 730 nm. The test samples (1–15 and Trolox [positive control]) were dissolved in a co-solvent of EtOH and DMSO (9:1, v/v) to make a 1 mM solution. The diluted ABTS^+• solution was mixed with the test sample solution at a volume ratio of 9:1 (90 μL:10 μL) and the mixture was stored for 2 min at 20 °C in the dark. The optical density was measured at 730 nm using an ELISA reader at 1 min intervals for 10 min. All test samples were used at a final concentration of 100 µM.
ABTS^+• radical scavenging activity (%) = [(ODcon − ODsam)/ODcon] × 100, where ODsam and ODcon represent the absorbances of the test sample and the control, respectively.

[5] = tested on: B16F10 tyrosinase in situ; settings: compounds 1, 2, 5 μM; kojic acid 5 μM; α-MSH + IBMX 72 h; excess L-dopa
Description: To evaluate the effect of the compounds on in situ tyrosinase activity, an experiment using B16F10 cells was performed as previously described [34, 35]. […] Excess L-dopa was added to increase their melanin production prior to the acquisition of cell images.
In Situ Tyrosinase Activity Assay Using B16F10 Cells and L-dopa
In situ tyrosinase activity was measured in B16F10 cells using L-dopa, as reported previously [34]. […] The cells were processed as follows: (1) fixing with 4% paraformaldehyde for 40 min, (2) washing with PBS, and (3) permeabilizing with 0.1% Triton X-100 for 2 min. After washing with PBS, the cells were stained with L-dopa (2 mM; 500 μL) at 37 °C for 2 h. Stained images were collected using a camera connected to a microscope (Motic, Hong Kong).

[6] = substrate L-dopa, 15 min, read-out: IC50 Values, L-Dopa
[7] = substrate L-tyrosine, 30 min, read-out: IC50 Values, L-Tyrosine

Cc1ccc2nc(-c3ccc(O)cc3O)oc2c1 [Compound 3, 4-(6-Methylbenzo[d]oxazol-2-yl)benzene-1,3-diol]
B16F10 cellular tyrosinase activity [1]: reduced the stimulator-induced tyrosinase activity in a concentration-dependent manner | IC50 [2, 6]: 16.8 ± 0.57 µM | IC50 [2, 7]: 0.51 µM | tyrosinase potency relative to kojic acid ([2]; substrate L-tyrosine): 28 times | cytotoxicity to B16F10 cells, 48 h [3]: not cytotoxic | cytotoxicity to B16F10 cells, 72 h [3]: weak cytotoxicity at the highest concentration tested | ABTS+• scavenging activity (% inhibition) [4]: 57% | melanin formation, in situ tyrosinase activity in B16F10 cells [5]: reduced melanin formation in a concentration-dependent manner

Oc1ccc(-c2nc3ccc(Cl)cc3o2)c(O)c1 [Compound 8, 4-(6-Chlorobenzo[d]oxazol-2-yl)benzene-1,3-diol]
B16F10 cellular tyrosinase activity [1]: reduced the stimulator-induced tyrosinase activity in a concentration-dependent manner | IC50 [2, 6]: 20.4 ± 1.99 µM | IC50 [2, 7]: 2.22 ± 0.16 µM | cytotoxicity to B16F10 cells, 48 h [3]: not cytotoxic | cytotoxicity to B16F10 cells, 72 h [3]: did not show cytotoxicity | ABTS+• scavenging activity (% inhibition) [4]: 64% | melanin formation, in situ tyrosinase activity in B16F10 cells [5]: reduced melanin formation in a concentration-dependent manner

Cc1ccc2oc(-c3ccc(O)cc3O)nc2c1 [Compound 13, 4-(5-Methylbenzo[d]oxazol-2-yl)benzene-1,3-diol]
B16F10 cellular tyrosinase activity [1]: reduced the stimulator-induced tyrosinase activity in a concentration-dependent manner | IC50 [2, 6]: 20.8 ± 1.02 µM | IC50 [2, 7]: 3.5 ± 0.07 µM | cytotoxicity to B16F10 cells, 48 h [3]: not cytotoxic | cytotoxicity to B16F10 cells, 72 h [3]: did not show cytotoxicity | ABTS+• scavenging activity (% inhibition) [4]: 54% | melanin formation, in situ tyrosinase activity in B16F10 cells [5]: reduced melanin formation in a concentration-dependent manner
